Columns and labels:
Format in all cases: binding
panel of 442 kinases [1] = target: T1, panel of 442 kinases (Homo sapiens, UniProt Q16566); conditions: Compound Concentration 10 µM
T1 construct: purchased KINOMEscan
T1 sequence (Q16566 1-473): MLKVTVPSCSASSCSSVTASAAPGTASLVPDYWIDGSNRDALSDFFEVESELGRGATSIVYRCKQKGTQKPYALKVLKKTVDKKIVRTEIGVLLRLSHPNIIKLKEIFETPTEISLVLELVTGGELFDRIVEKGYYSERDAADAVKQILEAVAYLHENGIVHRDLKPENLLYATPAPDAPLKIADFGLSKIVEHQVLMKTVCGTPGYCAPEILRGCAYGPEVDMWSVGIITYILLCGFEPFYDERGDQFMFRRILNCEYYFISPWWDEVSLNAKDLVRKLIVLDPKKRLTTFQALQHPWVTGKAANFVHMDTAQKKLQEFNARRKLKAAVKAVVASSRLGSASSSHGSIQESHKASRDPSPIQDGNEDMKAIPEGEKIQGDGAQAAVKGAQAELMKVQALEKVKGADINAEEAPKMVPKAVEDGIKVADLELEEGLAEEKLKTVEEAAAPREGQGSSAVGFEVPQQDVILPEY
Text: (§1) We assessed the selectivity of members of this scaffold using the KINOMEscan methodology across a near comprehensive panel of 442 kinases [[18,27]].

panel of 442 kinases [2] = target: T2, panel of 442 kinases (Homo sapiens, UniProt P43405); conditions: kinase SYK; compound concentration 10 µM
T2 construct: purchased KINOMEscan
Text: as §1

panel of 442 kinases [3] = target: T3, panel of 442 kinases (Homo sapiens, UniProt P10721, D816V); conditions: Compound Concentration 10 µM
T3 construct: purchased KINOMEscan
Text: as §1

T3 sequence (P10721 26-976 D816V): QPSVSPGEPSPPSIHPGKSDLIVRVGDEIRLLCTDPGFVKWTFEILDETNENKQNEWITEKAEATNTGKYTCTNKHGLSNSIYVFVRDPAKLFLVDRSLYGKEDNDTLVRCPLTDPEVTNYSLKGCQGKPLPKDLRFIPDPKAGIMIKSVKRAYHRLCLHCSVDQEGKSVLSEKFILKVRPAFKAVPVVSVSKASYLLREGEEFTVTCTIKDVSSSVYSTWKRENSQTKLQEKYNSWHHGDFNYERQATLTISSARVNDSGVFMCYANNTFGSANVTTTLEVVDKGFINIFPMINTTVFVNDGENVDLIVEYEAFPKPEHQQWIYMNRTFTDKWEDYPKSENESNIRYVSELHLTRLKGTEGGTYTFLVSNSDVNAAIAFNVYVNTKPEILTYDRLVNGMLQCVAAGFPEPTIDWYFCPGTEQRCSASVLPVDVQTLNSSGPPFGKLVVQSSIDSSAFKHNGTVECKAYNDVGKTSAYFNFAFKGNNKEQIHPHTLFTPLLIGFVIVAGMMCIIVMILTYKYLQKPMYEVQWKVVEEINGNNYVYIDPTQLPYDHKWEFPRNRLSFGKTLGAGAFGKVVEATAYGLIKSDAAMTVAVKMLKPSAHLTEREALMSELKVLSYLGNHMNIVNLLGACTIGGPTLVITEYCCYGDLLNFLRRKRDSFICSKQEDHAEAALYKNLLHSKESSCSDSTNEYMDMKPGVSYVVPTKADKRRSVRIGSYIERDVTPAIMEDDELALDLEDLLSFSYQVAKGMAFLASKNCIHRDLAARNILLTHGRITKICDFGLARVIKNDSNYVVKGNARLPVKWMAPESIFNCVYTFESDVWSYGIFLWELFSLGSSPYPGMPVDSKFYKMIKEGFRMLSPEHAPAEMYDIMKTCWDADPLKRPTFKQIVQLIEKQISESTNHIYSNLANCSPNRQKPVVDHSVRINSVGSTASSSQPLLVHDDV

Compound	KINOMEscan: CAMK4 (panel of 442 kinases [1])	% Ctrl, SYK (panel of 442 kinases [2])	KINOMEscan: KIT(D816V) (panel of 442 kinases [3])
COc1cc(C(=O)N2CCC(N3CCN(C)CC3)CC2)ccc1Nc1ncc2c(n1)N(C)c1ccccc1C(=O)N2C [15 (LRRK2-IN-1)]	79	100 % Ctrl	72
COc1cc(C(=O)N2CCC(N3CCN(C)CC3)CC2)ccc1Nc1ncc2c(n1)N1CCc3cccc(c31)C(=O)N2C [Compound 24]	–	88 % Ctrl	–
COc1cc(C(=O)N2CCC(N3CCN(C)CC3)CC2)ccc1Nc1ncc2c(n1)N(C1CCCC1)c1ccccc1C(=O)N2C [Compound 25, 11-cyclopentyl-2-((2-methoxy-4-(4-(4-methylpiperazin-1-yl)piperidine-1-carbonyl)phenyl)amino)-5-methyl-5H-benzo[e]pyrimido[5,4-b][1,4]diazepin-6(11H)-one]	82	100 % Ctrl	92
CCOc1cc(C(=O)N2CCC(N3CCN(C)CC3)CC2)ccc1Nc1ncc2c(n1)N(C1CCCC1)c1ccccc1C(=O)N2C [Compound 26]	100	100 % Ctrl	96

From paper PMC3914206
